Results: PMC7261172, “Peptides containing the PCNA interacting motif APIM bind to the β-clamp and inhibit bacterial growth and mutagenesis” (Nucleic Acids Research, 2020)

Tests used:
S.epidermidis (MRSE) = assay type: cell-based, Staphylococcus epidermidis; conditions: 24 h
Experimental: (§1) Briefly, bacterial suspension in Mueller-Hinton Broth was adjusted to 0.5 McFarland and diluted to 5 × 10^5 CFU/ml. The suspension (0.1 ml) was seeded in polypropylene microtiter plates (Greiner), 5 × 10^4 CFU/well. APIM-peptides were added as 10% of the total volume. Initial inoculums were quantified by seeding on agar for verification of the estimated CFU/mL. After 24 hours (h) incubation at 37°C, the microtiter plates were inspected for visible growth.

[1] = tested on: clinical isolates of multidrug-resistant S. epidermidis; test: Inhibition of growth (OD600) of clinical isolates; assay type: cell-based, Staphylococcus epidermidis; conditions: most sensitive clinical isolate (isolate 1); same molar concentration as the full-length RWLVK-peptide; Figure 1B
Experimental: Growth experiments were performed in Luria-Bertani broth (LB) media, Tryptic soy broth (TSB) or LB agar at 37°C, antibiotic selections were performed using the following concentrations: kanamycin 30 μg/ml, chloramphenicol 34 μg/ml and rifampicin 100 μg/ml.

E. coli MG1655 cells = test: Replication assay (flow cytometry of DNA content, Rif/Cpx run-out); assay type: cell-based, Escherichia coli; conditions: up to 15 μM peptide (above MIC), then Rif and Cpx run-out
Experimental: E. coli MG1655 cells were grown at 37°C in glucose-CAA medium (AB minimal medium ([46]) supplemented with 10 μg/ml thiamine, 0.2% glucose and 0.5% casamino acids) for several generations to ensure balanced growth. At an OD600 = 0.15, the cells were added 2, 4 or 6 μM RWLVK* peptide or 2, 4, 6 or 15 μM R11 peptide. Growth was continued for 2–5 min. After peptide treatment, cells were either harvested directly or treated with rifampicin (Rif) (300 μg/ml) and cephalexin (Cpx) (10 μg/ml) for the time equivalent of three to four generations before harvesting. Both directly harvested and Rif and Cpx treated cells were re-suspended in TE buffer (10 mM Tris–HCl, pH 8.0, 1 mM EDTA, pH 8.0) and fixed in 70% ethanol. Fluorescein isothiocyanate (FITC, Sigma-Aldrich) ([47]) was used for protein staining (representing mass), and Hoechst 33258 was used for DNA staining (Sigma-Aldrich) ([48]). Flow cytometry was performed with an LSR-II flow cytometer equipped with a 488 nm argon-ion laser and a 355 nm krypton laser (BD Biosciences), and the results were analyzed using FlowJo software (Tree Star, Inc.). Rif and Cpx inhibit the initiation of replication and cell division, respectively. Cells cannot initiate a new round of replication after these drugs are added but can complete ongoing rounds of replication (without dividing). […]

E.coli β-clamp = target: T1, E.coli β-clamp (Escherichia coli, UniProt P0A988); test: Microscale thermophoresis (MST) β-clamp binding; conditions: cell penetrating peptides, MST buffer with 2% fetal bovine serum, initial in vitro binding experiments, bounds given
T1 construct: made in house
Experimental: Purified E.coli β-clamp ([49]) was labeled using the RED-Maleimide Labelling Kit (NanoTemper Technologies, GmbH) according to the manufacturer's instructions applying a concentration of 20 μM protein at room temperature. The ligands, cell penetrating APIM-peptides, were dissolved and diluted in supplemented Microscale thermophoresis (MST) buffer (50 mM Tris–HCl pH 7.5, 150 mM NaCl, 10 mM MgCl2) with 2% fetal bovine serum and incubated for 10 min in room temperature. Series of 1:1 dilutions (16×), producing ligand concentrations ranging from 500 μM to 15 nM, were made. Each ligand solution was further diluted 1:1 with fluorescent labeled β-clamp (diluted in MST buffer, 3 nM) and incubated for 10 min. Fluorescence was measured for each protein-ligand sample using a Monolith NT.115 instrument (20% MST power and 100% LED power) and Monolith NT Standard Treated Capillaries (both NanoTemper Technologies, GmbH). To calculate the KD’s, fluorescence signals were plotted and analyzed using the supplemented software (NT Analysis software version 1.5.41 and MO.affinity analysis version 2.2.4, NanoTemper Technologies). Denaturation with SD-buffer (4% sodium dodecyl sulphate and 40 mM DTT) and re-measurement of total fluorescence confirmed that the observed change in fluorescence was due to ligand binding event.

E. coli BL21 = assay type: cell-based, Escherichia coli; conditions: Mueller-Hinton Broth, 5 × 10^5 CFU/ml, 24 h, 37°C; average of ≥3 independent biological experiments
Experimental: as §1

E. coli MG1655 [2] = assay type: cell-based, Escherichia coli; conditions: Mueller-Hinton Broth, 5 × 10^5 CFU/ml, 24 h, 37°C; average of ≥3 independent biological experiments
Experimental: as §1

E. coli MG1655 [3] = test: Rif^R mutagenicity assay, added cell penetrating peptides; assay type: cell-based, Escherichia coli; conditions: spontaneous; for Mutation frequency, added peptides: E. coli MG1655, cell penetrating peptide 20 μM, average ± SEM, RWLVK n = 11, RFSLK n = 4, RWLK n = 7, R11 n = 5, control 10.5 ± 2.2
Experimental: (§2) The rifampicin resistance (Rif^R) mutagenicity assay was performed as described in ([50]) with some modifications. Briefly, E. coli BL21 expressing peptide variants were induced with (IPTG) (1 mM) at OD600 = 0.3–0.4 and cultured at 37°C, for 2 h before harvested. Bacteria from large culture volumes (up to 50 ml) were plated in order to obtain ∼100 Rif^R colonies per dish. The anti-mutagenic effect of cell penetrating APIM-peptides in E. coli MG1655 was done by adding 20 μM peptide at OD600 = 0.01, and the cells were cultured for 30 min. Next, the cells were pelleted and washed with PBS before UV-irradiated in (50 μl) PBS (2 mJ UVC/cm^2), re-suspended in 2.5 ml LB and cultured in 37°C for 2 h before plating on LB plates with and without Rif (100 μg/ml). The number of Rif^R colonies/ total CFU was determined after 1 and 2 days, respectively. Significance was calculated by using a two-tailed, paired, students t-test. Gentamicin resistance (Gen^R) was examined using a gentamicin sensitive clinical isolate of S. epidermidis. […] The cultures were grown in a shaking incubator (37°C) and were re-inoculated (1:100) every 24 h in fresh TSB and supplements. The cultures were plated on blood agar plates with and without gentamicin (10 mg/l) every day for 4 days, and the frequency of Gen^R colonies was determined by calculating the number of Gen^R colonies/total CFU.

MRSA 43484 = test: Murine skin wound infection model; conditions: topical
Experimental: The experimental procedure is modified from a previously described skin infection model in mice ([52]). A total of 32 Balb/C female mice (18–22 g, Taconic, Denmark) were used for the experiment. The mice were treated orally with analgesia, 45 μl Nurofen®junior (Novartis 20 mg/ml ∼30 mg/kg), 30–60 min before the experiment. The mice were anesthetized with 0.15 ml diluted Zoletil mix (2 ml Zoletil mix + 5.2 ml sterile saline + 2.8 ml Torbugesix 1:100) before the fur was removed on a 2 × 3 cm area of the back with an electric shaver and a razor. At last, a skin lesion was made on each mouse with a dermal curette (Miltex 335710). A total of 10 μl inoculum containing 10^7 CFU MRSA 43484 (in saline) was added to a 1 cm^2 area of the skin lesion of each mouse. One group of animals (six mice) were sacrificed 1 day after inoculation, before any treatment was given, to quantify the inoculum. The remaining mice were given topical treatment twice a day (9 a.m and 3 p.m) for 3 days; APIM-peptide (RFSLK, Innovagen SE, 12.8 mg/ml in 1% methyl cellulose gel containing 10% glycerol) or Fusidic acid 2% ointment (LeoPharma). A volume of 50 μl was used for each treatment, spread out on the skin lesion. […] The treated animals and the control group were sacrificed on day 4, one day after the last treatment. […]

[4] = tested on: gentamicin sensitive clinical isolate of S. epidermidis; test: Gentamicin resistance (Gen^R) mutation frequency assay; assay type: cell-based, Staphylococcus epidermidis; conditions: peptide 3 μM, 4 days, daily re-inoculation 1:100 in TSB, n≥ 4; Figure 4B
Experimental: as §2

T1 sequence (P0A988 whole entry): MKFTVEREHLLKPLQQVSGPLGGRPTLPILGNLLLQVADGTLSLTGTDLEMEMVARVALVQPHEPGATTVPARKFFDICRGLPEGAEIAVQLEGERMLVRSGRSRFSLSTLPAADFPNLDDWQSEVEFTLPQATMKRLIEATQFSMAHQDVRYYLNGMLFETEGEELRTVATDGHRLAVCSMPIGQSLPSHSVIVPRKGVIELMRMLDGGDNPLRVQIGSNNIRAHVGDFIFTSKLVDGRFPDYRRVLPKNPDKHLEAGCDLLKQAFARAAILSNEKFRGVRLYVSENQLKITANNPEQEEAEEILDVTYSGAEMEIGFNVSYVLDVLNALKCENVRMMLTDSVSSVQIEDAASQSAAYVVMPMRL

Row | Compound | Minimal Inhibitory Concentration (MIC) S.epidermidis (MRSE) (S.epidermidis (MRSE)) | Inhibition of growth (OD600), % of untreated parallel [1] | Inhibition of DNA replication (E. coli MG1655 cells) | KD for the β-clamp (MST) (E.coli β-clamp) | Minimal Inhibitory Concentration (MIC) E. coli BL21 (E. coli BL21) | Minimal Inhibitory Concentration (MIC) E. coli MG1655 (E. coli MG1655 [2]) | Effect of added cell penetrating peptide on the mutation frequency (E. coli MG1655 [3]; E. coli MG1655, 20 μM) | Mutation frequency, added peptides (E. coli MG1655 [3]) | Bacterial load in the infected lesions (CFU/skin lesion) on day 4 (MRSA 43484; 50 μl twice a day for 3 days, 12.8 mg/ml (3.5 mM) in 1% methyl cellulose gel with 10% glycerol, compared to controls, Figure 5) | Toxicity of the APIM-peptide gel (MRSA 43484; twice a day for 3 days, mice) | Mutation frequency (Gen^R/10^8 CFU) compared to the control, peptide alone [4] | Kd (E.coli β-clamp; read-out: KD for the β-clamp (MST))
1 | N=C(N)NCCC[C@H](NC(=O)[C@H](CCCNC(=N)N)NC(=O)[C@H](CCCNC(=N)N)NC(=O)[C@H](CCCNC(=N)N)NC(=O)[C@H](CCCNC(=N)N)NC(=O)[C@H](CCCNC(=N)N)NC(=O)[C@H](CCCNC(=N)N)NC(=O)[C@H](CCCNC(=N)N)NC(=O)[C@H](CCCNC(=N)N)NC(=O)[C@H](CCCNC(=N)N)NC(=O)[C@@H](N)CCCNC(=N)N)C(N)=O [R11, reference compound] | 12 µM | no effect | did not have any effect | no binding was detected | 11 µM | 14.5 µM | did not affect the mutation frequency | 7.2 ± 3.9 Rif^R/10^8 CFU |  |  |  | 
2 | Ac-MDRFSLKWKKKRKIRRRRRRRRRRR-NH2 [RFSLK] | 3 µM |  |  |  | 4 µM | 7.5 µM |  | 4.1 ± 1.6 * Rif^R/10^8 CFU | significantly reduced the bacterial load | no toxicity | did not change the mutation frequency | < 50 µM
